Laboratory results taken from patent US20030055065A1, “Tricyclic amide and urea compounds useful for inhibition of G-protein function and for treatment of proliferative diseases” (priority 1993, published 2003).
“And” between values parts separate entries of the source, which are not always exact repeats. Equal values may be shown once. Read-outs that look alike come from different tables or passages of the source. One block for each molecule: values may come before it.

How the values were obtained:
[1] = molecular target: T1, farnesyl protein transferase (FPT), partially purified from rat brain (Rattus norvegicus, UniProt Q02293+Q04631); test: Inhibition of farnesyl protein transferase (transfer of [3H]farnesyl to Ras-CVLS); type: biochemical
T1 construct: were partially purified from rat brain by ammonium sulfate fractionation followed by Q-Sepharose
In short: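 Transfer of [3H]farnesyl onto E. coli-expressed, His6-tagged Ras-CVLS was measured after 30 min at room temperature. Radiolabelled Ras was TCA-precipitated on ice and filter-harvested, and inhibition was expressed as percent of DMSO control.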

[2] = system: Ras-CVLS processing in COS monkey kidney cells; test: COS cell assay: Ras-CVLS processing (Western blot); type: cell-based; details: COS cells, read-out: Inhibition of Ras Processing IC50
In short: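 COS cells electroporated with Ras-CVLS (farnesyl transferase substrate) cDNA, with drug-containing fresh medium added at 24 h and cells examined at 48 h. TCA-precipitated cellular protein was resolved by SDS gel and immunoblotted with anti-p21 Ras monoclonal and HRP anti-rat IgG to monitor Ras processing.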

[3] = system: T24-BAG4 human bladder carcinoma cells expressing an activated H-ras gene; test: Cell Mat Assay: tumor cell colony inhibition (tIC50); type: cell-based; details: Homo sapiens, inhibition of tumor cell growth
In short: (§1)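 Serial compound dilutions added 24 h after planting T24-BAG4 cells onto a mat of normal cells, then 14 d colony growth; monolayers glutaraldehyde-fixed and tumor cells X-Gal stained. tIC50 and mIC50 from microscope counts of colonies, cells per colony and mat cell density.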

[4] = system: Normal human HEPM fibroblasts; test: Cell Mat Assay: density of mat cells (mIC50); type: cell-based
In short: as §1

[5] = molecular target: T2, geranylgeranyl protein transferase (GGPT) I (Rattus norvegicus, UniProt P53610+Q04631); test: Inhibition of geranylgeranyl protein transferase I (Ras-CVLL as acceptor); type: biochemical; details: enzyme inhibition
T2 construct: were partially purified from rat brain by ammonium sulfate fractionation followed by Q-Sepharose
Text: 1. In vitro enzyme assays: Inhibition of farnesyl protein transferase and geranylgeranyl protein transferase.
Both farnesyl protein transferase (FPT) and geranylgeranyl protein transferase (GGPT) I were partially purified from rat brain by ammonium sulfate fractionation followed by Q-Sepharose (Pharmacia, Inc.) anion exchange chromatography essentially as described by Yokoyama et al (Yokoyama, K., et al., (1991), A protein geranylgeranyltransferase from bovine brain: Implications for protein prenylation specificity, Proc. Natl. Acad. Sci USA 88: 5302-5306, the disclosure of which is incorporated herein by reference thereto). Human farnesyl protein transferase was also expressed in E. coli, using cDNA clones encoding both the α and β subunits. The methods used were similar to those published (Omer, C. et al., (1993), Characterization of recombinant human farnesyl protein transferase: Cloning, expression, farnesyl diphosphate binding, and functional homology with yeast prenyl-protein transferases, Biochemistry 32:5167-5176). Human farnesyl protein transferase was partially-purified from the soluble protein fraction of E. coli as described above. […] Two forms of val^12-Ha-Ras protein were prepared as substrates for these enzymes, differing in their carboxy terminal sequence. One form terminated in cysteine-valine-leucine-serine (Ras-CVLS) the other in cystein-valine-leucine-leucine (Ras-CVLL). Ras-CVLS is a substrate for the farnesyl protein transferase while Ras-CVLL is a substrate for geranylgeranyl protein transferase I. The cDNAs encoding these proteins were constructed so that the proteins contain an amino-terminal extension of 6 histidine residues. Both proteins were expressed in Escherichia coli and purified using metal chelate affinity chromatography. The radiolabelled isoprenyl pyrophosphate substrates, [^3H]farnesyl pyrophosphate and [3H]geranylgeranyl pyrophosphate, were purchased from DuPont/New England Nuclear.
The geranylgeranyl protein transferase I assay was essentially identical to the farnesyl protein transferase assay described above, with two exceptions: [^3H]geranylgeranylpyrophosphate replaced farnesyl pyrophosphate as the isoprenoid donor and Ras-CVLL was the protein acceptor.

[6] = system: SW620 (human colon adenocarcinoma [lymph node metastasis]); test: In vivo anti-tumor study, SW620; parameters: species or system athymic nu/nu female mice; details: SW620 tumor, 100 MPK, po, 10/wk, x4
Protocol: In vivo Anti-tumor Studies
Tumor bearing animals are selected and randomized when the tumors are established. […] The percent inhibition of tumor growth relative to vehicle controls are determined by tumor measurements.

[7] = Ras-CVLS farnesylation, partially purified rat brain FPT, read-out: FPT IC50
[8] = enzyme inhibition, read-out: FPT IC50

T1 sequence (Q02293 whole entry, one chain of several): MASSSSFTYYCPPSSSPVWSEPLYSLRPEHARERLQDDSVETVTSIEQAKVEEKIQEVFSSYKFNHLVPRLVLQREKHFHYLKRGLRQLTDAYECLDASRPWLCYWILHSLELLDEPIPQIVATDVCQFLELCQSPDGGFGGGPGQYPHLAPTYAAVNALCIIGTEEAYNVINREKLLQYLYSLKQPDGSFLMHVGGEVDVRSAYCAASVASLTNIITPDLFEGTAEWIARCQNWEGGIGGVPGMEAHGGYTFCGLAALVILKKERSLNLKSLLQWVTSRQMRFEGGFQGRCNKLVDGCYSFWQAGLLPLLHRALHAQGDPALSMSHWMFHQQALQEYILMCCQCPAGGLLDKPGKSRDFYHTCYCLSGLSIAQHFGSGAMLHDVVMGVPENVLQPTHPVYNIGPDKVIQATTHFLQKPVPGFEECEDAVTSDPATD
T2 sequence (P53610 whole entry, one chain of several): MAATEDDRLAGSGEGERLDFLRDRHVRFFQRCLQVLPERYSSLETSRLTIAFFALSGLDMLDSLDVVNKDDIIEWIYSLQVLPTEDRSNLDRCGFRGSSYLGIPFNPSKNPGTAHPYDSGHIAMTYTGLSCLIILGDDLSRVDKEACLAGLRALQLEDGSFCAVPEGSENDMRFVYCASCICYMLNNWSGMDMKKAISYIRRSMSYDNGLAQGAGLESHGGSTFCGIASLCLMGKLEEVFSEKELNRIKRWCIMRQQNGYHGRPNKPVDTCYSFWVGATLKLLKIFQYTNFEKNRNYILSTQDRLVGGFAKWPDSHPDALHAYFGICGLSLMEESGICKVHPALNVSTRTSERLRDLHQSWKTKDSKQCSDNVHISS

IC50 [1, 7]: 2 µM | IC50 [3]: 12.5 µM | melting point: 122 to 125 °C
SMILES: O=C(Cc1ccccn1)N1CCC(=C2c3ccc(Cl)cc3CCc3cccnc32)CC1 [Example 6]
IC50 ([2]; Primates, COS): 10 µM | IC50 ([4]; Homo sapiens, Fibroblast): 50 µM

IC50 ([1]; FPT IC50, enzyme inhibition): 1 µM | IC50 [3]: 18 µM | melting point: 133.2 to 133.4 °C
SMILES: Nc1cnc2c(c1)CCc1cc(Cl)ccc1C2=C1CCN(C(=O)Cc2ccncc2)CC1 [Example 402]
IC50 ([2]; Primates, COS): > 10 µM | IC50 ([4]; Homo sapiens, Fibroblast): > 25 µM

IC50 [1, 7]: 0.6 µM | IC50 [3]: 25 µM | melting point: 93.3 to 94.6 °C
SMILES: O=C(Cc1ccc(Br)cc1)N1CCC(=C2c3ccc(Cl)cc3CCc3cccnc32)CC1 [Example 43]
IC50 ([2]; Primates, COS): 9.7 µM | IC50 ([4]; Homo sapiens, Fibroblast): 50 µM

IC50 [1, 7]: 0.95 µM | IC50 [3]: 18 µM | melting point: 59.8 to 63.5 °C
SMILES: O=C(Cc1cccnc1)N1CCC(=C2c3ccc(Cl)cc3CCc3c(Cl)ccnc32)CC1 [Example 250]
IC50 ([2]; Primates, COS): 8.6 µM | IC50 ([4]; Homo sapiens, Fibroblast): > 50 µM

IC50 [1, 7]: 1.3 µM | IC50 [3]: 12.5 µM | melting point: 82.7 to 83.8 °C
SMILES: CCC(C(=O)N1CCC(=C2c3ccc(Cl)cc3CCc3cccnc32)CC1)c1ccccc1 (centres unmarked) [Example 48]
IC50 ([2]; Primates, COS): 10.7 µM | IC50 ([4]; Homo sapiens, Fibroblast): 25 µM

IC50 [1, 7]: 9.9 µM | melting point: 190 to 193 °C
SMILES: O=C1CCC(C(=O)N2CCC(=C3c4ccc(Cl)cc4CCc4cccnc43)CC2)=NN1 [Example 35]

IC50 [1, 7]: 0.16 µM | IC50 [5]: > 40 µM | melting point: 92 to 93 °C
SMILES: O=C(Cc1cccnc1)N1CCC(=C2c3ccc(Cl)cc3CCc3cc(Br)cnc32)CC1 [Example 247]
IC50 ([2]; listed as 247 (5.122)): 3.5 µM | IC50 ([2]; Primates, COS): > 3.9 µM | IC50 ([4]; Homo sapiens, Fibroblast): > 50 µM

IC50 [1, 7]: 0.57 µM | melting point: 111.3 to 112.2 °C
SMILES: O=C(Cc1ccncc1)N1CCC(=C2c3ccc(Cl)cc3CCc3cc([N+](=O)[O-])cnc32)CC1 [Example 358]

IC50 [1, 7]: 6.1 µM | melting point: 92.7 to 93 °C
SMILES: O=C(C(CO)c1ccccc1)N1CCC(=C2c3ccc(Cl)cc3CCc3cccnc32)CC1 (centres unmarked) [Example 41, 8-chloro-1-[ -(2-hydroxy-1-phenylethylcarbonyl)-4-piperidylidene]-6,11-dihydro-5H-benzo[5,6]-cyclohepta-[1,2-b]pyridine]

IC50 [1, 7]: 6 µM | melting point: 205 to 207 °C
SMILES: CN1C(=O)C(CCC(=O)N2CCC(=C3c4ccc(Cl)cc4CCc4cccnc43)CC2)NC1=S (centres unmarked) [Example 23]

IC50 [1, 7]: 6 µM | melting point: 228 °C (dec.)
SMILES: O=C(c1cc[n+]([O-])cc1)N1CCC(=C2c3ccc(Cl)cc3CCc3cccnc32)CC1 [Example 22]

IC50 [1, 7]: 6.64 µM | melting point: 192 to 193 °C
SMILES: O=C(C(=O)N1CCC(=C2c3ccc(Cl)cc3CCc3cccnc32)CC1)c1c[nH]c2ccccc12 [Example 219]

IC50 [1, 7]: 4.7 µM | melting point: 176 to 178 °C
SMILES: O=C(c1ccncc1)N1CCC(=C2c3ccc(Cl)cc3CCc3cccnc32)CC1 [Example 15]

IC50 [1, 7]: 1.7 µM | IC50 [1, 8]: 1.7 µM | IC50 [5]: > 46 µM | melting point: 200 °C
SMILES: O=C1CCC(C(=O)N2CCC(=C3c4ccc(Cl)cc4CCc4cccnc43)CC2)CC1 [Example 5]
IC50 [2]: > 12 µM | IC50 ([2]; Primates, COS): 9.2 µM | IC50 [4]: 100 µM | IC50 ([4]; Homo sapiens, Fibroblast): > 50 µM

IC50 [1, 7]: 1 µM and 0.8 µM
SMILES: CN1C(=O)CC[C@H](C(=O)N2CCC(=C3c4ccc(Cl)cc4CCc4cccnc43)CC2)[C@H]1c1ccc(F)cc1 [Example 4]
inhibition in vivo at 100 mg/kg ([6]; Mus musculus, SW-620, po): 2%

IC50 [1, 7]: 0.8 µM | IC50 [3]: 25 µM | melting point: 112 to 114.6 °C
SMILES: O=C(Cc1ccccc1)N1CCC(=C2c3ccc(Cl)cc3CCc3cccnc32)CC1 [Example 44]
IC50 ([2]; Primates, COS): 11.6 µM | IC50 ([4]; Homo sapiens, Fibroblast): 25 µM

The next lines start with the molecule.

SMILES: O=C(C(c1ccccc1)c1ccccc1)N1CCC(=C2c3ccc(Cl)cc3CCc3cccnc32)CC1 [Example 42]
IC50 [1, 7]: 0.6 µM | IC50 ([2]; Primates, COS): 5.8 µM | IC50 [3]: 50 µM | IC50 ([4]; Homo sapiens, Fibroblast): > 50 µM | melting point: 114.2 to 115.8 °C

SMILES: O=C(Cc1cccnc1)N1CCC(=C2c3ccc(Cl)cc3CCc3c(On4nnc5ccccc54)ccnc32)CC1 [Example 251]
IC50 [1, 7]: 0.76 µM | IC50 ([2]; Primates, COS): 8.1 µM | melting point: 120 to 122 °C

SMILES: O=C(Nc1ccncc1)N1CCC(=C2c3ccc(Cl)cc3CCc3cc(Cl)ccc32)CC1 [Example 423]
FPT inhibition at the concentration in parentheses ([1]; (4.3) μM): 35 (4.3) | IC50 [1, 8]: > 4.3 µM | melting point: 206.4 to 207 °C

SMILES: O=C(Cc1cccnc1)N1CCC(C2c3ccc(Cl)cc3CCc3ccc[n+]([O-])c32)CC1 (centres unmarked) [Example 235]
IC50 [1, 7]: 3.57 µM | IC50 ([2]; Primates, COS): 9.1 µM | IC50 [3]: 12.5 µM | IC50 ([4]; Homo sapiens, Fibroblast): > 50 µM | melting point: 61.8 to 62.3 °C

SMILES: O=C(Nc1ccccn1)N1CCN(C2c3ccc(Cl)cc3CCc3cccnc32)CC1 (centres unmarked) [187 (6.8)]
IC50 [1, 7]: 0.95 µM | IC50 [5]: > 46 µM | IC50 [2]: 1.3 µM | IC50 [4]: > 50 µM and 50 µM | Average % Tumor Inhibition ([6]; listed as Ex. 187 (6.8), 100 mg/kg): 11% and 21%

SMILES: O=C(Cc1ccncc1)N1CCC(=C2c3ccc(Cl)cc3CCc3cc(Br)c(O)nc32)CC1 [Example 415]
IC50 [1, 8]: > 3.8 µM | melting point: 150 °C (dec.)

SMILES: CC(C)(C)OC(=O)NCCSc1ccnc2c1CCc1cc(Cl)ccc1C2=C1CCN(C(=O)Cc2cccnc2)CC1 [Example 260]
IC50 [1, 7]: 9.9 µM | melting point: 59.8 to 63.5 °C

SMILES: O=C(Cc1cc[n+]([O-])cc1)N1CCC(C2c3ccc(Cl)cc3CCc3ccc[n+]([O-])c32)CC1 (centres unmarked) [Example 238]
inhibition at 4 µM ([1]; at 4 μM): 26% | IC50 [3]: > 50 µM | IC50 ([4]; Homo sapiens, Fibroblast): > 50 µM | melting point: 85 to 85.6 °C

SMILES: Cn1cc(Br)c(=O)c2c1C(=C1CCN(C(=O)Cc3ccncc3)CC1)c1ccc(Cl)cc1CC2 [Example 416]
IC50 [1, 7]: 3.7 µM | melting point: 142 °C (dec.)

SMILES: O=C(Nc1ccc2c(c1)CCc1cccnc1C2=C1CCN(C(=O)Cc2ccncc2)CC1)OCc1ccccc1 [Example 437]
FPT inhibition at the concentration in parentheses ([1]; (11) μM): 36 (11) | melting point: 132.8 to 133.7 °C

SMILES: O=C(Cc1ccc[n+]([O-])c1)N1CCC(=C2c3ccc(Cl)cc3CCc3ccc[n+]([O-])c32)CC1 [Example 231]
inhibition at 12 µM ([1]; at 12 μM): 44% | melting point: 105 to 107 °C

SMILES: CN1CCC(CC(=O)N2CCC(=C3c4ccc(Cl)cc4CCc4c3ncc(Br)c4Cl)CC2)CC1 [Example 413]
IC50 [1, 8]: 0.103 µM | IC50 [5]: > 35 µM | IC50 ([2]; Primates, COS): 1.5 µM | IC50 [3]: > 6.25 µM | IC50 ([4]; Homo sapiens, Fibroblast): 10 µM | melting point: 105 °C (dec.)

SMILES: O=C(NCc1ccccc1)c1ccc2c(c1)CCc1cccnc1C2=C1CCN(C(=O)Cc2ccncc2)CC1 [Example 436]
IC50 [1, 7]: 17 µM | melting point: 118 to 120 °C

SMILES: O=C(O)c1ccc2c(c1)CCc1cccnc1C2=C1CCN(C(=O)Cc2ccncc2)CC1 [Example 435]
IC50 [1, 8]: 7 µM | melting point: 238 to 240 °C

SMILES: O=C(Cc1ccncc1)N1CCC(C2c3ccc(Cl)cc3CCc3ccc[n+]([O-])c32)CC1 (centres unmarked) [Example 236]
IC50 [1, 7]: 1.48 µM | IC50 [5]: > 45 µM | IC50 ([2]; Primates, COS): 3.5 µM | IC50 [3]: 4 µM | IC50 ([4]; Homo sapiens, Fibroblast): > 50 µM | melting point: 116.7 to 117.6 °C

SMILES: O=C(Nc1ccccc1)N1CCC(=C2c3ccc(Cl)cc3CCc3c2ncc(Br)c3Cl)CC1 [Example 414]
IC50 [1, 8]: 0.9 µM | melting point: 125.6 °C (dec.)
